Measurements taken from ChEMBL document CHEMBL4043100, “Antitrichomonal activity of δ opioid receptor antagonists, 7-benzylidenenaltrexone derivatives” (Bioorg Med Chem, 2017).
Values after ≈ are worked out from the molar mass of the structure shown.

Columns and labels:
Trichomonas vaginalis = assay: Antimicrobial activity against Trichomonas vaginalis after 48 hrs by neutral red staining based invert microscopic analysis; type: functional
[1] = target: Delta-type opioid receptor (Homo sapiens, UniProt P41143); assay: Displacement of [3H]DPDPE from human delta opioid receptor expressed in CHO cell membranes by microbeta scintillation counting analysis
Delta-type opioid receptor, sequence (P41143 whole entry): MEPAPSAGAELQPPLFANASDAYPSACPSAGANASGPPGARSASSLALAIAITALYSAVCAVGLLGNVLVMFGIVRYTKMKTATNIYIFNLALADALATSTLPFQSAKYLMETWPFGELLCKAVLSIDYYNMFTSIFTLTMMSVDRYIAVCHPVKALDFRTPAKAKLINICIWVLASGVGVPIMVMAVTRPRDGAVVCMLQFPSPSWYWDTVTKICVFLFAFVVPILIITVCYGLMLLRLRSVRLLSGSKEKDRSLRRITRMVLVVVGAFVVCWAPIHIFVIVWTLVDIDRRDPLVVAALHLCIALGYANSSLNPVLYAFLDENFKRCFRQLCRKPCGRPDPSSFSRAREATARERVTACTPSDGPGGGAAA

[2] = target: Kappa-type opioid receptor (Homo sapiens, UniProt P41145); assay: Displacement of [3H]U-69,593 from human kappa opioid receptor expressed in CHO cell membranes by microbeta scintillation counting analysis
Kappa-type opioid receptor, sequence (P41145 whole entry): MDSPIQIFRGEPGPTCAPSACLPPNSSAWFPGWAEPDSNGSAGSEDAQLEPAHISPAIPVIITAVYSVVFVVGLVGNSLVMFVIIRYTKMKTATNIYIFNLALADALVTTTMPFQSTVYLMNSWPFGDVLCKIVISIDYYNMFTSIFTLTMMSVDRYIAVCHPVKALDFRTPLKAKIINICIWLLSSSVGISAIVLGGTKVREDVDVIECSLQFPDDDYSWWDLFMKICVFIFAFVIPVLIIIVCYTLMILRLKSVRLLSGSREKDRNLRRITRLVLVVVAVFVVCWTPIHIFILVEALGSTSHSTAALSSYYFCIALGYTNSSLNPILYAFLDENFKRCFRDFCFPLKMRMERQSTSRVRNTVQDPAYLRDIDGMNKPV

Mu-type opioid receptor = Mu-type opioid receptor (Homo sapiens, UniProt P35372); assay: Displacement of [3H]DAMGO from human mu opioid receptor expressed in CHO cell membranes by microbeta scintillation counting analysis
Mu-type opioid receptor, sequence (P35372 whole entry): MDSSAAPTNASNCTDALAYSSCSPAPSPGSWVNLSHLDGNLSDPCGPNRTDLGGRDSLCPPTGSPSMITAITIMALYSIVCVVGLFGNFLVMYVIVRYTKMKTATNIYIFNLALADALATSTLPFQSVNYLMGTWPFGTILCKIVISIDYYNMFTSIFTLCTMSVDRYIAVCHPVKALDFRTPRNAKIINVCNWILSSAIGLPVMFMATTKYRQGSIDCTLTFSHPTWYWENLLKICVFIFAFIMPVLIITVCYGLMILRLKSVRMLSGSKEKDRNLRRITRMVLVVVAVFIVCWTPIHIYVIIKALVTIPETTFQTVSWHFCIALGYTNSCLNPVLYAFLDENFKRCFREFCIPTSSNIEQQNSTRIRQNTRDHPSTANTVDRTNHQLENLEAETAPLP

[3] = Antimicrobial activity against Tritrichomonas mobilensis after 48 hrs by neutral red staining based invert microscopic analysis; type: functional

Molecule | MIC (Trichomonas vaginalis) | IC50 (Trichomonas vaginalis) | Ki ([1]; read-out: Ki) | Ki ([2]; read-out: Ki) | Ki (Mu-type opioid receptor; read-out: Ki) | further results
H-AFEVVG-NH2 | > 320 µM |  |  |  |  | 
N#Cc1cccc(/C=C2\C[C@@]3(O)[C@H]4Cc5ccc(O)c6c5[C@@]3(CCN4CC3CC3)[C@@H](O6)C2=O)c1 | 40 µM (≈ 18.2 µg/mL) | 18 µM |  |  |  | 
O=C1/C(=C/c2ccccc2F)C[C@@]2(O)[C@H]3Cc4ccc(O)c5c4[C@@]2(CCN3CC2CC2)[C@H]1O5 | 20 µM (≈ 8.95 µg/mL) | 18.6 µM | 0.00294 µM | 0.0351 µM | 0.0128 µM | 
O=C1/C(=C/c2ccc(Br)cc2)C[C@@]2(O)[C@H]3Cc4ccc(O)c5c4[C@@]2(CCN3CC2CC2)[C@H]1O5 | 20 µM (≈ 10.2 µg/mL) | 11.2 µM | 0.00419 µM | 0.0704 µM | 0.00504 µM | 
COc1ccc(CC2C[C@@]3(O)[C@H]4Cc5ccc(O)c6c5[C@@]3(CCN4CC3CC3)[C@@H](O6)C2=O)cc1 (some centres not stated) | > 320 µM |  |  |  |  | 
N#Cc1ccc(/C=C2\C[C@@]3(O)[C@H]4Cc5ccc(O)c6c5[C@@]3(CCN4CC3CC3)[C@@H](O6)C2=O)cc1 | 20 µM (≈ 9.09 µg/mL) | 13.2 µM | 0.0181 µM | 0.209 µM | 0.0327 µM | 
O=C1/C(=C/c2ccccc2)C[C@@]2(O)[C@H]3Cc4ccc(O)c5c4[C@@]2(CCN3CC2CC2)[C@H]1O5 [BNTX] | 40 µM (≈ 17.2 µg/mL) | 21.7 µM | 0.00281 µM | 0.0328 µM | 0.011 µM | MIC [3]: > 320 µM
CN(C(=O)/C=C/c1ccoc1)[C@@H]1CC[C@@]2(O)[C@H]3Cc4ccc(O)c5c4[C@@]2(CCN3CC2CC2)[C@H]1O5 [NALFURAFINE] | 80 µM (≈ 38.1 µg/mL) |  |  |  |  | 
CC1(C)SSC(C)(C)[C@H](NC(=O)[C@@H](N)Cc2ccc(O)cc2)C(=O)NCC(=O)N[C@@H](Cc2ccccc2)C(=O)N[C@@H]1C(=O)O | > 320 µM |  |  |  |  | 
CN(C)c1ccc(/C=C2\C[C@@]3(O)[C@H]4Cc5ccc(O)c6c5[C@@]3(CCN4CC3CC3)[C@@H](O6)C2=O)cc1 | 20 µM (≈ 9.45 µg/mL) | 13.2 µM | 0.00372 µM | 0.0286 µM | 0.0172 µM | 
Cc1ncc([N+](=O)[O-])n1CCO [METRONIDAZOLE] | 10 µM (≈ 1.71 µg/mL) | 5.2 µM |  |  |  | Ki [1]: Not Active; Ki [2]: Not Active; MIC [3]: 2.5 µM (≈ 0.428 µg/mL); Ki (Mu-type opioid receptor): Not Active
COC(=O)/C=C/C(=O)N[C@@H]1CC[C@@]2(O)[C@H]3Cc4ccc(O)c5c4[C@@]2(CCN3CC2CC2)[C@H]1O5 | 80 µM (≈ 36.4 µg/mL) |  |  |  |  | 
O=C1/C(=C/c2ccnc3ccccc23)C[C@@]2(O)[C@H]3Cc4ccc(O)c5c4[C@@]2(CCN3CC2CC2)[C@H]1O5 | 40 µM (≈ 19.2 µg/mL) | 17.2 µM |  |  |  | 
O=C1/C(=C/c2ccccc2Br)C[C@@]2(O)[C@H]3Cc4ccc(O)c5c4[C@@]2(CCN3CC2CC2)[C@H]1O5 | 80 µM (≈ 40.7 µg/mL) |  |  |  |  | 
O=C1C(Cc2ccc(F)cc2)C[C@@]2(O)[C@H]3Cc4ccc(O)c5c4[C@@]2(CCN3CC2CC2)[C@H]1O5 (some centres not stated) | > 320 µM |  |  |  |  | 
O=C1C(Cc2ccccc2)C[C@@]2(O)[C@H]3Cc4ccc(O)c5c4[C@@]2(CCN3CC2CC2)[C@H]1O5 (some centres not stated) | 80 µM (≈ 34.5 µg/mL) |  |  |  |  | 
O=C1/C(=C/c2ccccc2Cl)C[C@@]2(O)[C@H]3Cc4ccc(O)c5c4[C@@]2(CCN3CC2CC2)[C@H]1O5 | > 320 µM |  |  |  |  | 
COc1ccc(/C=C2\C[C@@]3(O)[C@H]4Cc5ccc(O)c6c5[C@@]3(CCN4CC3CC3)[C@@H](O6)C2=O)cc1 | 20 µM (≈ 9.19 µg/mL) | 14.1 µM | 0.0018 µM | 0.0278 µM | 0.00516 µM | 
COc1cccc(/C=C2\C[C@@]3(O)[C@H]4Cc5ccc(O)c6c5[C@@]3(CCN4CC3CC3)[C@@H](O6)C2=O)c1 | 80 µM (≈ 36.8 µg/mL) |  |  |  |  | 
O=C1/C(=C/c2cccc(C(F)(F)F)c2)C[C@@]2(O)[C@H]3Cc4ccc(O)c5c4[C@@]2(CCN3CC2CC2)[C@H]1O5 | 80 µM (≈ 39.8 µg/mL) |  |  |  |  | 

Molecule | MIC (Trichomonas vaginalis) | IC50 (Trichomonas vaginalis) | Ki ([1]; read-out: Ki) | Ki ([2]; read-out: Ki) | Ki (Mu-type opioid receptor; read-out: Ki) | further results
Oc1ccc2c3c1O[C@H]1c4oc5ccccc5c4C[C@@]4(O)[C@@H](C2)N(CC2CC2)CC[C@]314 [NALTRIBEN] | 80 µM (≈ 33.2 µg/mL) |  |  |  |  | 
O=C1/C(=C/c2ccc(Cl)cc2)C[C@@]2(O)[C@H]3Cc4ccc(O)c5c4[C@@]2(CCN3CC2CC2)[C@H]1O5 | 20 µM (≈ 9.28 µg/mL) | 12.7 µM | 0.00822 µM | 0.0786 µM | 0.00613 µM | 
C=CCN1C[C@H](C)N([C@H](c2ccc(C(=O)N(CC)CC)cc2)c2cccc(OC)c2)C[C@H]1C [SNC-80] | > 320 µM |  |  |  |  | 
COc1ccc2c3c1O[C@H]1C(=O)/C(=C/c4ccccc4)C[C@@]4(O)[C@@H](C2)N(CC2CC2)CC[C@]314 | 80 µM (≈ 35.5 µg/mL) |  | 0.1 µM | > 1 µM | 0.499 µM | 
Oc1ccc2c3c1O[C@H]1c4[nH]c5c(c4C[C@@]4(O)[C@@H](C2)N(CC2CC2)CC[C@]314)C[C@@]1(O)[C@H]2Cc3ccc(O)c4c3[C@@]1(CCN2CC1CC1)[C@H]5O4 [NORBINALTORPHIMINE] | > 320 µM |  |  |  |  | 
Oc1ccc2c3c1O[C@H]1c4[nH]c5ccccc5c4C[C@@]4(O)[C@@H](C2)N(CC2CC2)CC[C@]314 [NALTRINDOLE] | 80 µM (≈ 33.2 µg/mL) |  |  |  |  | 
O=C1/C(=C/c2c(Cl)cccc2Cl)C[C@@]2(O)[C@H]3Cc4ccc(O)c5c4[C@@]2(CCN3CC2CC2)[C@H]1O5 | > 320 µM |  |  |  |  | 
O=C1/C(=C/c2ccc(I)cc2)C[C@@]2(O)[C@H]3Cc4ccc(O)c5c4[C@@]2(CCN3CC2CC2)[C@H]1O5 | 20 µM (≈ 11.1 µg/mL) | 10.5 µM | 0.00215 µM | 0.126 µM | 0.0199 µM | MIC [3]: > 320 µM
COc1ccc2c3c1O[C@H]1C(=O)C(Cc4ccccc4)C[C@@]4(O)[C@@H](C2)N(CC2CC2)CC[C@]314 (some centres not stated) | > 320 µM |  |  |  |  | 
O=C1/C(=C/c2ccco2)C[C@@]2(O)[C@H]3Cc4ccc(O)c5c4[C@@]2(CCN3CC2CC2)[C@H]1O5 | 160 µM (≈ 67.1 µg/mL) |  |  |  |  | 
O=C1/C(=C/c2cccs2)C[C@@]2(O)[C@H]3Cc4ccc(O)c5c4[C@@]2(CCN3CC2CC2)[C@H]1O5 | 40 µM (≈ 17.4 µg/mL) | 21.6 µM |  |  |  | 
O=C1/C(=C/c2ccc(F)cc2)C[C@@]2(O)[C@H]3Cc4ccc(O)c5c4[C@@]2(CCN3CC2CC2)[C@H]1O5 | 20 µM (≈ 8.95 µg/mL) | 12.8 µM | 0.0345 µM | 0.108 µM | 0.0209 µM | 
O=C1/C(=C/c2ccccc2C(F)(F)F)C[C@@]2(O)[C@H]3Cc4ccc(O)c5c4[C@@]2(CCN3CC2CC2)[C@H]1O5 | 80 µM (≈ 39.8 µg/mL) |  |  |  |  | 
CN1CC[C@]23Cc4nc5ccccc5cc4C[C@@]2(O)[C@H]1Cc1ccc(O)cc13 | 80 µM (≈ 29.8 µg/mL) |  |  |  |  | 
O=C1/C(=C/c2ccc(C(F)(F)F)cc2)C[C@@]2(O)[C@H]3Cc4ccc(O)c5c4[C@@]2(CCN3CC2CC2)[C@H]1O5 | 20 µM (≈ 9.95 µg/mL) | 13.7 µM | 0.0839 µM | 0.176 µM | 0.192 µM | 
O=C1/C(=C/c2cccc(F)c2)C[C@@]2(O)[C@H]3Cc4ccc(O)c5c4[C@@]2(CCN3CC2CC2)[C@H]1O5 | 20 µM (≈ 8.95 µg/mL) | 14.2 µM | 0.00837 µM | 0.049 µM | 0.0107 µM | 
COc1ccc2c3c1O[C@H]1C(=O)/C(=C/c4ccc(F)cc4)C[C@@]4(O)[C@@H](C2)N(CC2CC2)CC[C@]314 | 80 µM (≈ 36.9 µg/mL) |  |  |  |  | 
COc1ccc(/C=C2\C[C@@]3(O)[C@H]4Cc5ccc(OC)c6c5[C@@]3(CCN4CC3CC3)[C@@H](O6)C2=O)cc1 | 80 µM (≈ 37.9 µg/mL) |  |  |  |  | 
COc1ccccc1/C=C1\C[C@@]2(O)[C@H]3Cc4ccc(O)c5c4[C@@]2(CCN3CC2CC2)[C@@H](O5)C1=O | > 320 µM |  |  |  |  | 
O=C1CC[C@@]2(O)[C@H]3Cc4ccc(O)c5c4[C@@]2(CCN3CC2CC2)[C@H]1O5 [NALTREXONE] | 80 µM (≈ 27.3 µg/mL) |  |  |  |  | 
